Test results published in US12662484B2, “Substituted piperidines as bruton's tyrosine kinase inhibitors” (Shenzhen TargetRx, Inc., priority 2016, dated 2026).

Tests used:
[1] = biological target: T1, BTK C481S (Homo sapiens, UniProt Q06187, C481S); test: BTK C481S kinase inhibition test (HTRF); type: biochemical
T1 construct: purchased Carna 08-547
Experimental: (§1) Kinase Assay: Stock solution of the test compounds were prepared. The final concentration of DMSO in the kinase detection system was not exceed 1%. All of the procedures were carried out on ice, and the total volume of the reaction is 10 μL. Compound (4 μL), substrate and ATP (4 μL), and kinase (2 μL) were added to the wells of a 384-well plate in sequence, shaked for 30 sec, and reacted at room temperature for a proper time. Then, the resection was stopped by adding the detection reagents. The reaction mixture was reacted at room temperature for 1 hr, and detected with Microplate Reader.

[2] = biological target: T2, ITK (Homo sapiens, UniProt Q08881); test: ITK kinase inhibition test (HTRF); type: biochemical
T2 construct: purchased Carna 08-181
T2 sequence (Q08881 1-620): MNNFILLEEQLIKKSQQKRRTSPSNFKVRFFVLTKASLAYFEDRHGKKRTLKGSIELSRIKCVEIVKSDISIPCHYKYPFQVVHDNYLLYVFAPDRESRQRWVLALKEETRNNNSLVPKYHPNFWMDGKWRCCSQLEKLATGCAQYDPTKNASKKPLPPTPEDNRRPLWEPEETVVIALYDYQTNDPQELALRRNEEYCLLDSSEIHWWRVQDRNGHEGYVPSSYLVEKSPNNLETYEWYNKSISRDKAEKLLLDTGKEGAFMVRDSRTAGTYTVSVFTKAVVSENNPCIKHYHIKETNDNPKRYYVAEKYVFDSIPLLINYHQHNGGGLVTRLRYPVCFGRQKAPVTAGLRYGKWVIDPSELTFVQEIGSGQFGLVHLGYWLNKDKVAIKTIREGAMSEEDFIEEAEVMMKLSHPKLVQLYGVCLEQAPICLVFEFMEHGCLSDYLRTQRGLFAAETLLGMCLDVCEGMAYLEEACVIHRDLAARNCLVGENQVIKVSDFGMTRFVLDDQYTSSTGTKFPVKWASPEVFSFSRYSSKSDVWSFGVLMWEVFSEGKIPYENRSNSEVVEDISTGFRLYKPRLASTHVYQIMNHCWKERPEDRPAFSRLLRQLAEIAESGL
Experimental: (4) BTK C481S and ITK Kinase Inhibition Test
Reagents and materials: BTK C481S (Carna, catalog number: 08-547), ITK (Carna, catalog number: 08-181). […].
as §1, with “Reader. […].” for “Reader.”

[3] = biological target: T3, Phospho-BTK (Y223) in NIH/3T3 BTK WT cells (Homo sapiens, UniProt Q06187); test: Phospho-BTK (Y223) assay, NIH/3T3 BTK WT cells; type: cell-based; details: phospho-BTK Y223, NIH/3T3 BTK WT cells; read-out: NIH/3T3 BTK-WT pBTK IC50
T3 construct: expressed in transfected cells; host or cells: NIH/3T3
T3 sequence (Q06187 whole entry): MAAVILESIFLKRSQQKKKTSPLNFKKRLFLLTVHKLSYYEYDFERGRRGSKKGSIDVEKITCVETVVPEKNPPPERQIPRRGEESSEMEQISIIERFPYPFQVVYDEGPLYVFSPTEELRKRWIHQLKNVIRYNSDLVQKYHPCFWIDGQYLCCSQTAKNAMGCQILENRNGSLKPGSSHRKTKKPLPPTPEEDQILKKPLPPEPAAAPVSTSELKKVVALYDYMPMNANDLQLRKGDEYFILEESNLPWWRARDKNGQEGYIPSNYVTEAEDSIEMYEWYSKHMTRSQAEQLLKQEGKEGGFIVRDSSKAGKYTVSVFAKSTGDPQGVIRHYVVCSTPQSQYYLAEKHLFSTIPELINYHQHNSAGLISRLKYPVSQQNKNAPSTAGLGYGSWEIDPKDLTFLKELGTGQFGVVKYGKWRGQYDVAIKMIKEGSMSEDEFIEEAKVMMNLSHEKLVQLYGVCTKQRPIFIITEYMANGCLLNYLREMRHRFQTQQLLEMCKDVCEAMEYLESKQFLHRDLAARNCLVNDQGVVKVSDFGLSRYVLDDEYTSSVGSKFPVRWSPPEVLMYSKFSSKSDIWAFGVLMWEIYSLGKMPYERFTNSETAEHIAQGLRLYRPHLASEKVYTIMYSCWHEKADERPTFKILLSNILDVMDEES
Experimental: (§2) (5) Phospho-BTK (Y223) Assay The Adherent Cells Protocol: Day 1: • 1. […] The plate was incubated overnight at 37° C., 5% CO2. Day 2: • 1. 3-fold compound dilution was prepared, and dispensed 50 μL into 100 μL cell culture. 0.5% DMSO was used as positive control of the cell growth. • 2. The plate was incubated at 37° C., 5% CO2 for 0.5 h. • 3. 50 μL of 1 mM Na3VO4 was added, and incubated at 37° C., 5% CO2 for 2 h. • 4. During the incubation, the following reagents were prepared: 1× supplemented lysis buffer: 3 vol ddH2O+1 vol 4× Lysis buffer+100× Blocking reagent. p-BTK (Y223) cryptate-antibody and p-BTK (Y223) d2-antibody working solution: 1 volume of the stock solution of each antibody frozen aliquot (stored at)−20° was added into 19 volumes of the detection buffer (stored at) 4°. • 5. At the end of the incubation, the plate was flicked to remove the medium, then added 50 μL of 1× supplemented lysis buffer, and incubated at RT for 30 min, with 500 rpm shaking. • 6. The lysate was homogenized by pipetting up and down, and transferred 16 μL to a 384-well microplate. 1× supplemented lysis buffer was used as blank control. • 7. 4 μL of premixed antibody working solutions (cryptate Ab:d2 Ab=1:1) was added. The plate was covered with a plate sealer. • 8. Incubated at RT overnight. […] Data Analysis:
(§3) The IC50 value was calculated with GraphPad Prism 7.0.
(§4) The IC50 of the compounds for phosphorylating BTK Y223 was fit using the following formula.

[4] = biological target: T4, Phospho-BTK (Y223) in NIH/3T3 BTK C481S cells (Homo sapiens, UniProt Q06187, C481S); test: Phospho-BTK (Y223) assay, NIH/3T3 BTK C481S cells; type: cell-based; details: phospho-BTK Y223, NIH/3T3 BTK C481S cells; read-out: NIH/3T3 BTK-C481S pBTK IC50
T4 construct: expressed in transfected cells; host or cells: NIH/3T3
T4 sequence (Q06187 whole entry C481S): as the sequence (Q06187 whole entry) above, with C481S counted along it
Experimental: as §2, §3, §4

[5] = Pharmacokinetics and brain distribution study after a single oral administration
Text: (6) Pharmacokinetics and Brain Distribution Study in Male Sprague Dawley Rats Following a Single Oral Administration
This study is designed to evaluate the pharmacokinetics and brain distribution of compounds disclosed herein in male Sprague Dawley Rat following a single Oral administration.
The animals were fasted overnight from 18:00 p.m. before the dosing day, and fed at 4 hr post-dose. All animals were free access to water during the study. Blood, CSF and brain were collected after each occasion of dosing at 0.5, 1, 2, and 8 hr. Blood samples (˜0.25 mL per time-point) were collected via jugular venous sinus puncture and placed in K2EDTA-containing tubes. Immediately following blood collection, the samples were inverted several times and held on wet ice before centrifugation. All the samples were centrifuged within 30 min of collection under refrigeration (set to maintain 4° C. for 5 min at 6000 rpm) to obtain plasma. The CSF samples (about 100 μL) were collected into tubes via puncture of the cisterna magna. The brain samples were rinsed with saline, drained with filter paper and removed with blood vessels, then weighted and recorded. 5-fold of the homogenate solvent (30% MeOH/70% 10 mM PBS) were used for the homogenization. All the samples were stored at −80° C., or lower until being analyzed with LC-MS/MS. Concentrations of the compounds disclosed herein in each matrix were used for PK analysis by non-compartmental method using WinNonlin.

[6] = biological target: T5, BTK (Homo sapiens, UniProt Q06187); test: Kinase inhibition test (HTRF), BTK; type: biochemical; details: 1 nM BTK, 20 μM ATP
T5 construct: purchased Invitrogen PR5442A
T5 sequence (Q06187 whole entry): as the sequence (Q06187 whole entry) above
Experimental: (1) Kinase Inhibition Test
• 1) Compound dilution: The test compounds were dissolved in DMSO to make a 10 mM stock solution.

[7] = male, Sprague-Dawley, rat, in vivo
[8] = in vivo; details: male, Sprague-Dawley, rat
[9] = male SD rat, 10 mg/kg oral, CSF
[10] = male SD rat, 10 mg/kg oral, brain
[11] = male SD rat, 10 mg/kg oral, plasma
[12] = male, Sprague Dawley, rat, CSF, po, 10 mg/kg
[13] = male, Sprague Dawley, rat, brain, po, 10 mg/kg
[14] = male, Sprague Dawley, rat, plasma, po, 10 mg/kg

T1 sequence (Q06187 whole entry C481S): as the sequence (Q06187 whole entry) above, with C481S counted along it

SMILES	IC50 [1]	IC50 [2]	IC50 [3]	IC50 [4]	Cmax, CSF [5, 9]	Cmax, Brain [5, 10]	AUC(0-t) [5, 12]	AUC(0-inf) [5, 14]	AUC(0-t) [5, 14]	MRT inf [5, 14]	other results
C=CC(=O)N1CCC[C@@H](c2cn(-c3ccc(Oc4ccccc4)cc3)c3c(N)ncnc23)C1 [Example 3, (S)-1-(3-(4-amino-5-(4-phenoxyphenyl)-5H-pyrrolo[3,2-d]pyrimidin-7-yl)piperidin-1-yl)prop-2-en-1-one]	10.7 nM	139 nM	6.62 nM	502 nM							
C=CC(=O)N1CCC[C@@H](c2nn(-c3ccc(Oc4ccccc4)cc3)c3c(N)ncnc23)C1 [Example 5, (R)-1-(3-(7-amino-1-(4-phenoxyphenyl)-1H-pyrazolo[4,3-d]pyrimidin-3-yl)piperidin-1-yl)prop-2-en-1-one]	6.02 nM	619 nM	5.48 nM	663 nM							
C=CC(=O)N1CCC[C@@H](n2nc(-c3ccc(Oc4ccccc4)cc3)c3c(N)ncnc32)C1 [Ibrutinib, reference compound]					0.35 ng/mL	25.4 ng/mL	0.0875 ng·h/mL	666 ng·h/mL	626 ng·h/mL	145 min	

The next lines start with results.

IC50 [1]	IC50 [2]	IC50 [3]	IC50 [4]	SMILES	Cmax, CSF [5, 9]	Cmax, Brain [5, 10]	AUC(0-t) [5, 12]	AUC(0-inf) [5, 14]	AUC(0-t) [5, 14]	MRT inf [5, 14]	other results
16.1 nM	4380 nM	18.7 nM	> 1000 nM	C=CC(=O)N1CCC[C@H](c2nn(-c3ccc(Oc4ccccc4)cc3)c3c(N)ncnc23)C1 [Example 6, (S)-1-(3-(7-amino-1-(4-phenoxyphenyl)-1H-pyrazolo[4,3-d]pyrimidin-3-yl)piperidin-1-yl)prop-2-en-1-one]							
2.46 nM	21.9 nM	7.36 nM	162 nM	C=CC(=O)N1CCC[C@@H](c2nc(-c3ccc(Oc4ccccc4)cc3)c3c(N)nccn23)C1 [Example 7, (R)-1-(3-(8-amino-1-(4-phenoxyphenyl)imidazo[1,5-a]pyrazin-3-yl)piperidin-1-yl)prop-2-en-1-one]	0.478 ng/mL	18 ng/mL	0.119 ng·h/mL	285 ng·h/mL	275 ng·h/mL	122 min	Cl_pred, Plasma [5, 11]: 586; Vz_pred, Plasma [5, 11]: 85.5 L/kg; Tmax [5, 12]: 30 min; AUC(0-t) [5, 13]: 16.4 ng·h/mL; Tmax [5, 13]: 30 min; Cmax [5, 14]: 117 ng/mL; Tmax [5, 14]: 30 min; half-life [5, 14]: 101 min
3.85 nM	172 nM	4.86 nM	291 nM	C=CC(=O)N1CCC[C@@H](c2nc(-c3ccc(Oc4ccccc4)cc3)c3c(N)ncnn23)C1 [Example 8, (R)-1-(3-(4-amino-5-(4-phenoxyphenyl)imidazo[5,1-f][1,2,4]triazin-7-yl)piperidin-1-yl)prop-2-en-1-one]							IC50 [6]: < 1 nM; F [7]: 16.0%; AUC(0-t) ([8]; iv, 0.5 mg/kg): 255 ng·h/mL; Cmax ([8]; iv, 0.5 mg/kg): 1120 ng/mL; AUC(0-t) ([8]; po, 10 mg/kg): 820 ng·h/mL; Cmax ([8]; po, 10 mg/kg): 348 ng/mL; Tmax ([8]; po, 10 mg/kg): 20 min
